Laboratory results reported in publication PMC3076703 (Pharmacogenetics and genomics, 2010).
Residue numbers refer to the chain shown, from its start.

Experiments:
[1] = target: T1, UGT1A4^24Thr/48Leu (Homo sapiens, UniProt P22310); experiment: Glucuronidation assay, UGT1A4 24Thr/48Leu-overexpressing HEK293 cell homogenate; format: in vitro ADME
T1 sequence (P22310 29-534): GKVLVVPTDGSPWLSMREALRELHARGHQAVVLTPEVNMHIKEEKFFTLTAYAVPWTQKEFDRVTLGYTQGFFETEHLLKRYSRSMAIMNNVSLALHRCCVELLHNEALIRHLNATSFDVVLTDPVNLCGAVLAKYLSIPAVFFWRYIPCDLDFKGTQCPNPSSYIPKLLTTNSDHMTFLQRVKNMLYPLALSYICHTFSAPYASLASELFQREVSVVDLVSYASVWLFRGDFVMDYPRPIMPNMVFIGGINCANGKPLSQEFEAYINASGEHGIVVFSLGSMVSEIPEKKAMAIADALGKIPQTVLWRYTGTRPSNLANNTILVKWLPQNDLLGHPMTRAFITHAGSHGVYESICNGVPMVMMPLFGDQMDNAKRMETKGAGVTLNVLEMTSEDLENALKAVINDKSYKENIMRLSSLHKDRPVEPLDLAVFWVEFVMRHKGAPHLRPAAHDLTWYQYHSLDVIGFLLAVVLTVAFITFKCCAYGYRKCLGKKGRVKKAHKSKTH

[2] = test system: UGTs 1A1, 1A3, 1A6, 1A7, 1A9, 2B4, 2B7, 2B10, 2B11, 2B15; format: in vitro ADME, human; details: other UGTs screened; up to 1 mg of UGT-overexpressing cell homogenate
[3] = target: T2, UGT2B17 (Homo sapiens, UniProt O75795); format: in vitro ADME
T2 sequence (O75795 24-530): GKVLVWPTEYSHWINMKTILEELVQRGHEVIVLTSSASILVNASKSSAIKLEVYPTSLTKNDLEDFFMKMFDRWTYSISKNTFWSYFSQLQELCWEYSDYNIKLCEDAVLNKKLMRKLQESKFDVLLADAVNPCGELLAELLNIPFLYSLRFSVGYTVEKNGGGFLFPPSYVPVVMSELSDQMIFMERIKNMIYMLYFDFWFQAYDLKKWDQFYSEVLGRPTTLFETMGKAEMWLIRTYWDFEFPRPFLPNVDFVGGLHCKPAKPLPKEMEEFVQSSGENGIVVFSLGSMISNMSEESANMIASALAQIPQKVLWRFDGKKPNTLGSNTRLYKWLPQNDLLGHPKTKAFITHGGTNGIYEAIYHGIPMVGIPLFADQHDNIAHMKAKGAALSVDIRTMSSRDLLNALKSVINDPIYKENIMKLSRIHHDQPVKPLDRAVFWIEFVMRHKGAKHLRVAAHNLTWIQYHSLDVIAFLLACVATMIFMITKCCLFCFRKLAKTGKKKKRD

[4] = individuals taking exemestane; cited from earlier work
[5] = target: T3, UGT1A4^24Pro/48Val (Homo sapiens, UniProt P22310, L48V); format: in vitro ADME
T3 sequence (P22310 29-534 L48V): T1 sequence (P22310 29-534) with L20V

[6] = target: T4, UGT1A8 (Homo sapiens, UniProt Q9HAW9); experiment: Glucuronidation assay, UGT1A8-overexpressing HEK293 cell homogenate; format: in vitro ADME
T4 sequence (Q9HAW9 26-530): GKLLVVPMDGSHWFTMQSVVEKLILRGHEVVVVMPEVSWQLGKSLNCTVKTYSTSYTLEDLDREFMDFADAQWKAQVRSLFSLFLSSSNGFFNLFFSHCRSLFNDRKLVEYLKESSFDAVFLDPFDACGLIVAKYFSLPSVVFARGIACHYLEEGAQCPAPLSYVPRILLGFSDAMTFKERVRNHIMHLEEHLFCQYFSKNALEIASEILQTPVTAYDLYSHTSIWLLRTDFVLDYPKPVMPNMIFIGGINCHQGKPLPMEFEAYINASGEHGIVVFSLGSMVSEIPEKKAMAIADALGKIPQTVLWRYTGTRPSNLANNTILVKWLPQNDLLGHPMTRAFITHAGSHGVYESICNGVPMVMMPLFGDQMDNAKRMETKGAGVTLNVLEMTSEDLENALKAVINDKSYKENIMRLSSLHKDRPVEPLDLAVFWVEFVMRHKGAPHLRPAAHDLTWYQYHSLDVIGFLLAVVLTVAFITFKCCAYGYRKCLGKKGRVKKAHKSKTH

[7] = target: T5, UGT1A4^24Pro/48Leu (Homo sapiens, UniProt P22310); experiment: Glucuronidation assay, UGT1A4 24Pro/48Leu-overexpressing HEK293 cell homogenate; format: in vitro ADME
T5 sequence (P22310 29-534): T1 sequence (P22310 29-534)

[8] = human; cited from earlier work

Structure (SMILES) | Km [1] | Vmax ([1]; normalized per μg UGT protein) | glucuronidation activity in UGT screen [2] | Km [3] | Vmax ([3]; normalized per μg UGT protein) | glucuronidation activity in UGT screen ([3]; up to 600 μmol/l substrate) | plasma level as share of parent exemestane [4] | Km [5] | Vmax ([5]; normalized per μg UGT protein) | Km [6] | Vmax ([6]; normalized per μg UGT protein) | glucuronidation activity in UGT screen ([6]; up to 600 μmol/l substrate) | Km ([7]; UGT1A4 24Pro/48Leu) | Vmax ([7]; UGT1A4 24Pro/48Leu, normalized per μg UGT protein) | glucuronidation activity in UGT screen ([7]; UGT1A4, up to 600 μmol/l substrate) | excreted as parent compound [8] | fecal excretion [8] | urinary excretion [8]
C=C1C[C@H]2[C@@H]3CC[C@H](O)[C@@]3(C)CC[C@@H]2[C@@]2(C)C=CC(=O)C=C12 [17-dihydroexemestane] | 28 ± 7.8 µM | 0.26 ± 0.04 pmol/min/μg UGT protein | None of the other UGTs screened in our assays exhibited any glucuronidation activity | 15 ± 2.7 µM | 2.0 ± 0.25 pmol/min/μg UGT protein | detectable activity | 35–40% | 36 ± 5.4 µM | 0.40 ± 0.03 pmol/min/μg UGT protein | 14 ± 3.9 µM | 0.30 ± 0.06 pmol/min/μg UGT protein | detectable activity | 34 ± 3.9 µM | 0.27 ± 0.01 pmol/min/μg UGT protein | detectable activity | – | – | –
C=C1C[C@@H]2[C@H](CC[C@]3(C)C(=O)CC[C@@H]23)[C@@]2(C)C=CC(=O)C=C12 [exemestane, 6-methylenandrosta-1,4-diene-3,17-dione] | – | – | – | – | – | – | – | – | – | – | – | – | – | – | – | 1% | around 42% | around 42%
